System: rabbit atrial tissue
Test: Frequency-dependent effects on action potentials of rabbit atrial tissue (APD90)
Format: cell-based
Conditions: 1 μM, of control APD90, n=5
Method: Action potentials in rabbit atrial tissue were recorded according to the method described in thesis by Kwak, et al. (A newly synthesized benzopyran derivatives, activates the cardiac ATP-sensitive K^+ channel. J Pharmacol Exp Ther 1995, 275: 807-812).
Male New Zealand white rabbits weighing about 2 kg were stunned with a blow on the head and hearts were rapidly excised and transferred to a dissection bath filled with Tyrode's solution saturated with 97% O2 and 3% CO2 gas mixture and each dissected tissue was mounted horizontally in a narrow channel of a tissue chamber and continuously superfused with the Tyrode's solution at 37° C. The action potentials were elicited by stimulating the cardiac cells with square pulses (1˜5 Hz, 1-ms duration, 20-30% above threshold voltage) by a stimulator. […] Tracings on the oscilloscope screen were photographed on a 35-mm film and also recorded on a physiograph (RS 3400, Gould, Cleveland, Ohio). APD90 was used for the comparison of action potential durations. APD90 represents the action potential duration at 90% repolarization, relative to the action potential duration at maximum 100% depolarization. Images on the oscilloscope screen were captured on Polaroid camera.
We tested whether the effect of chelidonine on action potentials of rabbit atrial myocytes are frequency-dependent or not.
The relative action potential durations were normalized to the APD90 value in the absence of chelidonine at each frequency. At the stimulus frequency of 1, 2, 3, 4 and 5 Hz, 1 μM chelidonine increased APD90 by 13.0±8.1% (n=5), 14.5±7.9% (n=5), 16.5±2.2% (n=5) 28.2±0.4% (n=5) or 33.0±0.3 1% (n=5) of the control APD90 in the absence of chelidonine at each frequency, respectively.

SMILES: CN1Cc2c(ccc3c2OCO3)[C@@H]2[C@H]1c1cc3c(cc1C[C@@H]2O)OCO3 [Compound 1, [5bR-(5bα,6β,12bα)]-5b,6,7,12b,13, 14-hexahydro-13-methyl[1,3]benzodioxolo[5,6c]-1,3-dioxolo[4,5-i]phenanthridin-6-ol]
- increase of APD90 (stimulus frequency 1 Hz): 13.0±8.1%
- increase of APD90 (stimulus frequency 2 Hz): 14.5±7.9%
- increase of APD90 (stimulus frequency 3 Hz): 16.5±2.2%
- increase of APD90 (stimulus frequency 4 Hz): 28.2±0.4%
